Assay results taken from PMC10734772 (Turkish Journal of Chemistry, 2021).

melting point	SMILES
105 °C	Cc1ccc(NC(=O)c2ccc(CN3CCN(c4ncccn4)CC3)cc2)cc1Br [Compound 4a, N-(3-Bromo-4-methylphenyl)-4-((4-(pyrimidin-2-yl)piperazin-1-yl)methyl)benzamide]
135 °C	COc1ccc(CN2CCN(Cc3ccc(C(=O)Nc4ccc(C)c(Br)c4)cc3)CC2)c(OC)c1OC [Compound 4b, N-(3-Bromo-4-metylphenyl)-4-((4-(2,3,4-trimethoxybenzyl)piperazin-1-yl)methyl)benzamide]
116 °C	Cc1ccc(NC(=O)c2ccc(CN3CCOCC3)cc2)cc1Br [Compound 4c, N-(3-Bromo-4-methylphenyl)-4-(morpholinomethyl)benzamide]
